From PubChem BioAssay AID256 (DTP/NCI, 2004)
“And” between values parts separate entries of the source, which are not always exact repeats. Identical values can stand only once. Inconclusive results and toxic doses are left out. How the source made its calls: active means survival T/C of 150% or more; inactive means T/C below 125% in these data.

System: CD2F1 mice, L1210 leukemia ip, survival T/C
Assay: NCI In Vivo Anticancer Drug Screen. Data for tumor model L1210 Leukemia (intraperitoneal) in CD2F1 (CDF1) mice
Conditions: higher = longer survival
How it was run: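 Vehicle-treated tumor-bearing mice served as controls (C) for compound-treated mice (T). Reported figure is T divided by C.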

[1] = endpoint: mean survival time, dose: 12.5 mg/kg/injection, schedule: Q04DX003 (ip), vehicle: saline
[2] = endpoint: mean survival time, dose: 25.0 mg/kg/injection, schedule: Q04DX003 (ip), vehicle: saline
[3] = endpoint: mean survival time, dose: 100.0 mg/kg/injection, schedule: Q04DX002 (ip), vehicle: saline with Tween-80
[4] = endpoint: mean survival time, dose: 200.0 mg/kg/injection, schedule: Q04DX002 (ip), vehicle: saline with Tween-80
[5] = endpoint: mean survival time, dose: 100.0 mg/kg/injection, schedule: Q01DX001 (ip), vehicle: saline with Tween-80
[6] = endpoint: mean survival time, dose: 200.0 mg/kg/injection, schedule: Q01DX001 (ip), vehicle: saline with Tween-80
[7] = endpoint: mean survival time, dose: 400.0 mg/kg/injection, schedule: Q01DX001 (ip), vehicle: saline with Tween-80
[8] = endpoint: mean survival time, dose: 12.5 mg/kg/injection, schedule: Q01DX009 (ip), vehicle: Klucel (hydroxypropylcellulose) (HPC)
[9] = endpoint: mean survival time, dose: 25.0 mg/kg/injection, schedule: Q01DX009 (ip), vehicle: Klucel (hydroxypropylcellulose) (HPC)
[10] = endpoint: mean survival time, dose: 50.0 mg/kg/injection, schedule: Q01DX009 (ip), vehicle: Klucel (hydroxypropylcellulose) (HPC)
[11] = endpoint: mean survival time, dose: 100.0 mg/kg/injection, schedule: Q01DX009 (ip), vehicle: Klucel (hydroxypropylcellulose) (HPC)
[12] = endpoint: mean survival time, dose: 200.0 mg/kg/injection, schedule: Q01DX009 (ip), vehicle: Klucel (hydroxypropylcellulose) (HPC)
[13] = endpoint: mean survival time, dose: 50.0 mg/kg/injection, schedule: Q04DX003 (ip), vehicle: saline
[14] = endpoint: mean survival time, dose: 100.0 mg/kg/injection, schedule: Q04DX003 (ip), vehicle: saline with Tween-80
[15] = endpoint: mean survival time, dose: 200.0 mg/kg/injection, schedule: Q04DX003 (ip), vehicle: saline with Tween-80
[16] = endpoint: mean survival time, dose: 400.0 mg/kg/injection, schedule: Q04DX003 (ip), vehicle: saline with Tween-80
[17] = endpoint: mean survival time, dose: 100.0 mg/kg/injection, schedule: Q01DX009 (ip), vehicle: saline with Tween-80
[18] = endpoint: mean survival time, dose: 200.0 mg/kg/injection, schedule: Q01DX009 (ip), vehicle: saline with Tween-80
[19] = endpoint: mean survival time, dose: 50.0 mg/kg/injection, schedule: Q04DX003 (ip), vehicle: saline with Tween-80
[20] = endpoint: mean survival time, dose: 400.0 mg/kg/injection, schedule: Q01DX009 (ip), vehicle: saline with Tween-80

Measured: T/C

[Au].[NH-]C1CCCCC1[NH-].[NH-]C1CCCCC1[NH-] (stereo not drawn)
inactive: endpoint: mean survival time, dose: 3.13 mg/kg/injection, schedule: Q04DX003 (ip), vehicle: saline 97 % of control | endpoint: mean survival time, dose: 6.25 mg/kg/injection, schedule: Q04DX003 (ip), vehicle: saline 96 % of control | [1] 97 % of control | [2] 100 % of control

COc1ccccc1NC(=O)Oc1ccc2ccccc2c1
inactive: [3] 103 % of control | [4] 91 % of control

Cc1nn(-c2ccc(Cl)cc2)c(C)c1N=O
inactive: [5] 104 % of control

O=CC12C=CC(CC1)C1C(=O)OC(=O)C12 (stereo not drawn)
inactive: [5] 104 % of control | [6] 103 % of control | [7] 101 % of control

CSc1cc(C)[o+]c(C)c1
inactive: [8] 94 % of control | [9] 97 % of control | [10] 108 % of control | [11] 113 % of control | [12] 117 % of control

c1ccc(C[N+]23CCN(CC2)CC3)cc1
inactive: [1] 98 % of control | [2] 98 % of control | [13] 101 % of control

CN(C)c1ccc(/C=N/N=C(/N)N[N+](=O)[O-])cc1
inactive: endpoint: mean survival time, dose: 100.0 mg/kg/injection, schedule: Q01DX001 (ip), vehicle: saline 94 % of control | endpoint: mean survival time, dose: 200.0 mg/kg/injection, schedule: Q01DX001 (ip), vehicle: saline 97 % of control

O=C(NC1CCC(CC2CCCCC2)CC1)C(Cl)Cl (stereo not drawn)
inactive: [3] 101 % of control | [4] 101 % of control | endpoint: mean survival time, dose: 400.0 mg/kg/injection, schedule: Q04DX002 (ip), vehicle: saline with Tween-80 89 % of control

OCc1ccc2c(n1)COC(c1ccccc1)O2 (stereo not drawn)
inactive: endpoint: mean survival time, dose: 100.0 mg/kg/injection, schedule: Q04DX002 (ip), vehicle: Klucel (hydroxypropylcellulose) (HPC) 102 % of control | endpoint: mean survival time, dose: 200.0 mg/kg/injection, schedule: Q04DX002 (ip), vehicle: Klucel (hydroxypropylcellulose) (HPC) 94 % of control | endpoint: mean survival time, dose: 400.0 mg/kg/injection, schedule: Q04DX002 (ip), vehicle: Klucel (hydroxypropylcellulose) (HPC) 94 % of control

CC1(CC#N)CO1 (stereo not drawn)
inactive: [14] 96 % of control | [15] 96 % of control | [16] 96 % of control

Oc1ccc(/C=N/NC(=S)NN2CCOCC2)nc1
inactive: endpoint: mean survival time, dose: 3.12 mg/kg/injection, schedule: Q01DX009 (ip), vehicle: Klucel (hydroxypropylcellulose) (HPC) 103 % of control | endpoint: mean survival time, dose: 6.25 mg/kg/injection, schedule: Q01DX009 (ip), vehicle: Klucel (hydroxypropylcellulose) (HPC) 104 % of control | [8] 101 % of control | [9] 121 % of control | endpoint: mean survival time, dose: 25.0 mg/kg/injection, schedule: Q04DX002 (ip), vehicle: saline with Tween-80 101 % of control | [10] 95 % of control | [3] 91 % of control and 94 % of control

CC1=CCCC2(CCC3(C)CC32)C1(C)C (stereo not drawn)
inactive: endpoint: mean survival time, dose: 100.0 mg/kg/injection, schedule: Q04DX003 (ip), vehicle: acetone 98 % of control | endpoint: mean survival time, dose: 200.0 mg/kg/injection, schedule: Q04DX003 (ip), vehicle: acetone 102 % of control | endpoint: mean survival time, dose: 400.0 mg/kg/injection, schedule: Q04DX003 (ip), vehicle: acetone 110 % of control

CCCCCC(=O)N1CCCC1
inactive: [14] 98 % of control | [15] 98 % of control

Cn1nc(NC(=O)C(F)(F)F)c2ncc(-c3ccccc3)nc21
inactive: [14] 91 % of control | [15] 87 % of control | [16] 91 % of control

CC(C)(C)N1CC(C(O)(c2ccccc2)c2ccccc2)C1
inactive: endpoint: mean survival time, dose: 25.0 mg/kg/injection, schedule: Q01DX001 (ip), vehicle: saline with Tween-80 101 % of control | endpoint: mean survival time, dose: 50.0 mg/kg/injection, schedule: Q01DX001 (ip), vehicle: saline with Tween-80 101 % of control

O=C(Sc1cn(C2CC(O)C(CO)O2)c(=O)[nH]c1=O)c1ccc(N(CCCl)CCCl)cc1 (stereo not drawn)
inactive: endpoint: mean survival time, dose: 12.5 mg/kg/injection, schedule: Q01DX005 (ip), vehicle: water 117 % of control | endpoint: mean survival time, dose: 25.0 mg/kg/injection, schedule: Q01DX005 (ip), vehicle: water 115 % of control | endpoint: mean survival time, dose: 50.0 mg/kg/injection, schedule: Q01DX005 (ip), vehicle: water 124 % of control | endpoint: mean survival time, dose: 66.0 mg/kg/injection, schedule: Q01DX005 (ip), vehicle: water 119 % of control | endpoint: mean survival time, dose: 100.0 mg/kg/injection, schedule: Q01DX005 (ip), vehicle: water 119 % of control | endpoint: mean survival time, dose: 200.0 mg/kg/injection, schedule: Q01DX005 (ip), vehicle: water 120 % of control

O=[N+]([O-])c1cc2c(c([N+](=O)[O-])c1)OCOC2
inactive: [17] 105 % of control | [18] 96 % of control

CC(=O)NS(=O)(=O)c1ccc([NH-])cc1.CC(=O)NS(=O)(=O)c1ccc([NH-])cc1.[Cl][Pt+2][Cl]
inactive: endpoint: mean survival time, dose: 25.0 mg/kg/injection, schedule: Q04DX003 (ip), vehicle: saline with Tween-80 102 % of control | [19] 97 % of control | [14] 96 % of control | [15] 94 % of control | [16] 104 % of control

CC(=O)Oc1ccc(C(=O)O)cc1
inactive: [10] 91 % of control | [11] 98 % of control

C1CCC(C2CCCC[N-]2)[N-]C1.CSCCC([NH-])C(=O)O.[Cl][Pt] (stereo not drawn)
inactive: endpoint: median survival time, dose: 10.0 mg/kg/injection, schedule: Q04DX003 (ip), vehicle: saline 101 % of control | endpoint: median survival time, dose: 20.0 mg/kg/injection, schedule: Q04DX003 (ip), vehicle: saline 101 % of control | endpoint: median survival time, dose: 40.0 mg/kg/injection, schedule: Q04DX003 (ip), vehicle: saline 94 % of control | endpoint: median survival time, dose: 80.0 mg/kg/injection, schedule: Q04DX003 (ip), vehicle: saline 101 % of control and 103 % of control | endpoint: median survival time, dose: 160.0 mg/kg/injection, schedule: Q04DX003 (ip), vehicle: saline 96 % of control | endpoint: median survival time, dose: 320.0 mg/kg/injection, schedule: Q04DX003 (ip), vehicle: saline 108 % of control

C1=C(c2ccc(-c3ccccc3)cc2)Nc2ccccc2S1
inactive: endpoint: mean survival time, dose: 100.0 mg/kg/injection, schedule: Q04DX002 (ip), vehicle: other 107 % of control | endpoint: mean survival time, dose: 200.0 mg/kg/injection, schedule: Q04DX002 (ip), vehicle: other 107 % of control

Oc1cc(N2CC2)c(O)cc1N1CC1
inactive: endpoint: mean survival time, dose: 0.07 mg/kg/injection, schedule: Q01DX009 (ip), vehicle: saline 111 % of control | endpoint: mean survival time, dose: 0.15 mg/kg/injection, schedule: Q01DX009 (ip), vehicle: saline 116 % of control

CC(C)(C)OC(=O)CCC(NC(=O)OCc1ccccc1)C(=O)O (stereo not drawn)
inactive: [19] 93 % of control | endpoint: mean survival time, dose: 100.0 mg/kg/injection, schedule: Q01DX001 (ip), vehicle: saline sonified 103 % of control | [14] 94 % of control | endpoint: mean survival time, dose: 200.0 mg/kg/injection, schedule: Q01DX001 (ip), vehicle: saline sonified 109 % of control

CC(=O)Nc1ccccc1OC(=O)OCC(Cl)(Cl)Cl
inactive: [17] 96 % of control | [18] 96 % of control | [20] 101 % of control

CC(C)OC(=O)CCl
inactive: [5] 100 % of control | [6] 100 % of control

CCC(C)(O)C(C)=O (stereo not drawn)
inactive: [8] 98 % of control | [9] 92 % of control | [10] 98 % of control | [11] 98 % of control | [12] 105 % of control

Fc1c(F)c(F)c(Nc2c(F)c(F)c3c(F)c(F)c(F)c(F)c3c2F)c(F)c1F
inactive: [5] 98 % of control | [6] 96 % of control | [7] 98 % of control

c1cc[n+](Cc2nc3ccccc3[nH]2)cc1
inactive: endpoint: mean survival time, dose: 25.0 mg/kg/injection, schedule: Q01DX009 (ip), vehicle: saline 97 % of control and 100 % of control | [2] 103 % of control and 100 % of control | endpoint: mean survival time, dose: 50.0 mg/kg/injection, schedule: Q01DX009 (ip), vehicle: saline 100 % of control | [13] 100 % of control and 106 % of control | endpoint: mean survival time, dose: 100.0 mg/kg/injection, schedule: Q01DX009 (ip), vehicle: saline 101 % of control and 97 % of control | endpoint: mean survival time, dose: 100.0 mg/kg/injection, schedule: Q04DX003 (ip), vehicle: saline 97 % of control and 103 % of control

Cn1c(/C=C/C(=O)O)cc2ccccc21
inactive: endpoint: mean survival time, dose: 75.0 mg/kg/injection, schedule: Q01DX001 (ip), vehicle: saline 108 % of control | endpoint: mean survival time, dose: 150.0 mg/kg/injection, schedule: Q01DX001 (ip), vehicle: saline 106 % of control | endpoint: mean survival time, dose: 300.0 mg/kg/injection, schedule: Q01DX001 (ip), vehicle: saline 106 % of control

Cc1c([N+](=O)[O-])cc2c(c1[N+](=O)[O-])C(C)(C)CC2(C)C
inactive: [17] 100 % of control | [14] 96 % of control | [18] 98 % of control | [15] 105 % of control | [20] 96 % of control | [16] 94 % of control
